The record followed here is PubChem BioAssay (NCI).

Holding throughout (experiment): growth of human tumour cells (NCI), 48 h
Test [1] has as its system A498 renal.
The test system of test [2] is EKVX NSCLC.
In test [3] the test system is HCT-116 colon.
Test [4] relates to IGROV1 ovarian.
Test [5] deals with KM12 colon.
Test [6] concerns LOX IMVI melanoma.
For test [7], the system named is M14 melanoma.
Test [8] has as its system MALME-3M melanoma.
The test system of test [9] is MDA-MB-435.
In test [10] the test system is OVCAR-5 ovarian.
The subject of test [11] is RPMI-8226 leukemia.
For test [12], the system named is SF-539 CNS.
Test [13] deals with T-47D breast.
Test [14] deals with ACHN renal.

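In this assay, cells in 96-well plates receive the compound at five concentrations for 48 hours. Endpoints are linearly interpolated between the surrounding concentrations. Definition used: TGI = concentration required for complete inhibition of growth.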 Some results are limits rather than exact numbers.

Take `COc1ccc(NC(=S)Nc2cc(C)cc(C)n2)cc1`: the TGI in test [1], in test [2], in test [3], in test [4], in test [5] and in [6] was > 100 µM in each case. The TGI in test [7], in test [8], in test [9], in [10], in test [11] and in test [12] was > 100 µM throughout. In addition, the TGI in test [13] is > 100 µM.
On to `CS(=O)(=O)OCCCCOS(=O)(=O)CF`, for which the TGI in [1], in [14], in test [2], in [3], in test [4] and in test [5] was > 100 µM in each case. The TGI is > 100 µM in [6]; > 100 µM in test [7]; > 46.4 µM in test [8]; > 100 µM in test [9]; > 100 µM in [10]; > 100 µM in test [11]. Further, the TGI in test [12] and in [13] was > 100 µM throughout.
On to `CSC(=N/C=C/c1ccccc1)SC`, for which the TGI in test [1], in test [14], in [2], in [3], in test [4] and in [5] was > 100 µM throughout. The TGI in test [6], in test [7], in test [8], in [9], in test [10] and in test [11] was > 100 µM each time. For the same compound, the TGI in test [12] and in test [13] was > 100 µM in each case.
For the compound `CN(Cc1cnc2nc(N)nc(N)c2n1)c1ccc(C(=O)NCCS(=O)(=O)O)cc1`, the TGI in test [1], in test [14], in test [2], in test [3], in [4] and in test [5] was > 100 µM throughout. The TGI in [6], in test [7], in test [8], in test [9], in test [10] and in [11] was > 100 µM in each case. Moreover, the TGI in [12] and in test [13] was > 100 µM throughout.
As to `C[N+](C)(CCCn1ccnc1[N+](=O)[O-])CCCn1ccnc1[N+](=O)[O-]`, the TGI in [1], in test [14], in test [2], in test [3], in test [4] and in [5] was > 100 µM throughout. The TGI in [6], in test [7], in [8], in test [9], in test [10] and in test [11] was > 100 µM throughout. In addition, the TGI in test [12] and in [13] was > 100 µM in each case.
On to `COC(=O)NC(Nc1ccccn1)(C(F)(F)F)C(F)(F)F`, for which the TGI in test [1], in [14], in test [2], in test [3], in [4] and in test [5] was > 100 µM throughout. Further, the TGI in [6], in [7], in test [8], in test [9], in [10] and in [11] was > 100 µM each time. Besides, the TGI in test [12] and in test [13] was > 100 µM each time.
In the case of `Nc1ncc(Br)c(NCC2(CO)CCC2)n1`, the TGI in test [1], in test [14], in test [2], in test [3], in test [4] and in test [5] was > 100 µM throughout. For the same compound, the TGI in test [6], in [8], in [9], in [10], in [11] and in test [12] was > 100 µM each time. The TGI in [13] was found to be 63.4 µM.
Regarding `CC(C)(C)c1cc(C(=O)/C=C/c2c(Cl)cccc2Cl)cc(C(C)(C)C)c1O`, the TGI in [1] was > 100 µM; in test [14], 28.2 µM; in test [2], 63.3 µM; in test [3], 23.2 µM; in test [4], > 100 µM; in test [5], 36.8 µM. For the same compound, the TGI in test [6] stood at 28.3 µM; in [7], 54.7 µM; in [8], 37.6 µM; in [9], 54.4 µM; in [10] it was 35 µM; in [11] it was 21.3 µM. The TGI in test [12] came to 31.6 µM; in test [13], 18 µM.
`C/C=C/C(C#N)(/C=C/c1ccccc1)OP1(=O)OC(c2ccccc2)C(C)N1C` (stereo not drawn): the TGI in test [1] is 35.6 µM; in [14], 68.7 µM; in test [2], 44.5 µM; in [3] it was 31.3 µM; in test [4], 32.8 µM; in test [5], 36.7 µM. Also, the TGI in test [6] is 35 µM; in test [7], 37.1 µM; in test [8] it was 38.8 µM; in [9], 34.9 µM; in [10] it was 43.6 µM; in [11], 40 µM. Also, the results for the TGI in test [12] and in test [13] were 35.1 µM and 68.9 µM, respectively.
As for `COc1ccccc1CCN1CCN(CCCc2ccccc2)CC1`, the TGI in test [1], in test [14], in test [2], in test [3], in [4] and in [5] was > 100 µM each time. The TGI is > 100 µM in test [6]; 76.4 µM in test [7]; > 100 µM in [8]; > 100 µM in test [9]; > 100 µM in [10]; > 100 µM in [11]. Further, the TGI in [12] and in [13] was > 100 µM in each case.
